According to patent publication US20240376099A1, “COMPOUNDS AND COMPOSITIONS AS INHIBITORS OF ENDOSOMAL TOLL-LIKE RECEPTORS” (Novartis AG, priority 2016, published 2024):

biological target: T1, TLR8 (Homo sapiens, UniProt Q9NR97); experiment: huPBMC TLR8 Antagonist IL-6 TR-FRET Assay; format: cell-based; design: Fresh blood was collected from normal human donors; endogenous in cells; host or cells: human PBMCs from fresh donor blood; conditions: human PBMCs stimulated with ssRNA40 1 μg/ml (DOTAP), 14-16 hrs; IL-6 TR-FRET read-out
T1 sequence (Q9NR97 27-1041): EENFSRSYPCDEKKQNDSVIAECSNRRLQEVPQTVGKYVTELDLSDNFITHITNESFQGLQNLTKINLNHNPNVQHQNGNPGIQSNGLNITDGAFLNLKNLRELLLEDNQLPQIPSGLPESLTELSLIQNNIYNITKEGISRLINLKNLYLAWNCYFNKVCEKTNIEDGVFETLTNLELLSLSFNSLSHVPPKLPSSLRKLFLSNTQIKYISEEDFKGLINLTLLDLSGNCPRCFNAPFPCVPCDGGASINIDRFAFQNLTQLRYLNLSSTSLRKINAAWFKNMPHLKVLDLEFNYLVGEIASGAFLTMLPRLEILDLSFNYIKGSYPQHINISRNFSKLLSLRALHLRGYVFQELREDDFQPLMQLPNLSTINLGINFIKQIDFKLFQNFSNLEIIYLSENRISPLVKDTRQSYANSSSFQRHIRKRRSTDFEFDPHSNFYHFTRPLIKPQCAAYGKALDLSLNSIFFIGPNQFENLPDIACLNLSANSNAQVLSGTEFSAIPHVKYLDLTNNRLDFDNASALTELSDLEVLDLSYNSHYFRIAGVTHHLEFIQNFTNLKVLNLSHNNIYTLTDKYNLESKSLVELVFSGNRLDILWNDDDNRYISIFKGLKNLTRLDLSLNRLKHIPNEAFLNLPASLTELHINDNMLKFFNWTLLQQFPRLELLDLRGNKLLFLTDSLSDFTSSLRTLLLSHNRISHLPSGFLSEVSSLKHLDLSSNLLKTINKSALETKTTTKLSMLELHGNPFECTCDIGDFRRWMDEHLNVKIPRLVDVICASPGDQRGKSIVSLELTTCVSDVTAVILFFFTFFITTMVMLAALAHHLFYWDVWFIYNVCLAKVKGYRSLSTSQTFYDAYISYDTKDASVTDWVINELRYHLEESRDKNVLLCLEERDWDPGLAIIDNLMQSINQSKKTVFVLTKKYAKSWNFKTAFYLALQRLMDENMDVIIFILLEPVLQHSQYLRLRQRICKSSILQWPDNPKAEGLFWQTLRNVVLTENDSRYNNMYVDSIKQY
Procedure, shortened: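 Human PBMCs from fresh donor blood (150,000 cells/well) stimulated 14–16 h at 37 °C with DOTAP-complexed ssRNA40 (final 1 μg/ml for TLR8, 10 μg/mL for TLR7) or ODN2216 (final 0.3 μM, TLR9), 0.25% DMSO, ten-point 1/3 compound dilutions. Supernatant IL-6 read by HTRF (TLR8); IFNα by IFNα2b AlphaLISA (TLR7/TLR9).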

Structure (SMILES)	IC50 [nM]
Cc1nc(N2CCc3c(c(C)nn3CC34CCC(NC5CCC5)(CC3)CC4)C2)c2c(n1)c(C)nn2C [compound 27, N-cyclobutyl-4-((3-methyl-5-(1,3,5-trimethyl-1H-pyrazolo[4,3-d]pyrimidin-7-yl)-4,5,6,7-tetrahydro-1H-pyrazolo[4,3-c]pyridin-1-yl)methyl)bicyclo[2.2.2]octan-1-amine]	14
Cc1cc(N2CCc3c(c(C)nn3CC34CCC(N5CC6(COC6)C5)(CC3)CC4)C2)c2cnn(C)c2n1 [compound 116, 6-(4-((5-(1,6-dimethyl-1H-pyrazolo[3,4-b]pyridin-4-yl)-3-methyl-4,5,6,7-tetrahydro-1H-pyrazolo[4,3-c]pyridin-1-yl)methyl)bicyclo[2.2.2]octan-1-yl)-2-oxa-6-azaspiro[3.3]heptane]	68
Cc1nc(N2CCc3c(c(C)nn3CC34CCC(N5CCOCC5)(CC3)CC4)C2)c2cn[nH]c2n1 [compound 21, 4-(4-((3-methyl-5-(6-methyl-1H-pyrazolo[3,4-d]pyrimidin-4-yl)-4,5,6,7-tetrahydro-1H-pyrazolo[4,3-c]pyridin-1-yl)methyl)bicyclo[2.2.2]octan-1-yl)morpholine]	36
Cc1cc(N2CCc3c(c(C)nn3CC34CCC(N5C[C@@H](C)O[C@@H](C)C5)(CC3)CC4)C2)c2cnn(C)c2n1 [compound 110, (2S,6R)-4-(4-((5-(1,6-dimethyl-1H-pyrazolo[3,4-b]pyridin-4-yl)-3-methyl-4,5,6,7-tetrahydro-1H-pyrazolo[4,3-c]pyridin-1-yl)methyl)bicyclo[2.2.2]octan-1-yl)-2,6-dimethylmorpholine]	16
Cc1cc(N2CCc3c(c(C)nn3CC34CCC(NCC5CCC5)(CC3)CO4)C2)c2cnn(C)c2n1 [compound 112, N-(cyclobutylmethyl)-1-((5-(1,6-dimethyl-1H-pyrazolo[3,4-b]pyridin-4-yl)-3-methyl-4,5,6,7-tetrahydro-1H-pyrazolo[4,3-c]pyridin-1-yl)methyl)-2-oxabicyclo[2.2.2]octan-4-amine]	56
Cc1cc(N2CCc3c(c(C)nn3CC34CCC(NC(=O)[C@H]5COCCN5)(CC3)CC4)C2)c2cnn(C)c2n1 [Compound No. 9, (R)—N-(4-((5-(1,6-dimethyl-1H-pyrazolo[3,4-b]pyridin-4-yl)-3-methyl-4,5,6,7-tetrahydro-1H-pyrazolo[4,3-c]pyridin-1-yl)methyl)bicyclo[2.2.2]octan-1-yl)morpholine-3-carboxamide]	201
Cc1cc(N2CCc3c(c(C)nn3CC34CCC(NC(=O)C5CNCCO5)(CC3)CC4)C2)c2cnn(C)c2n1 (stereo not drawn) [compound 125, N-(4-((5-(1,6-dimethyl-1H-pyrazolo[3,4-b]pyridin-4-yl)-3-methyl-4,5,6,7-tetrahydro-1H-pyrazolo[4,3-c]pyridin-1-yl)methyl)bicyclo[2.2.2]octan-1-yl)morpholine-2-carboxamide]	43
CCNC12CCC(Cn3nc(C)c4c3CCN(c3ccnc(-c5ccccc5)c3)C4)(CC1)CC2 [compound 127, N-ethyl-4-((3-methyl-5-(2-phenylpyridin-4-yl)-4,5,6,7-tetrahydro-1H-pyrazolo[4,3-c]pyridin-1-yl)methyl)bicyclo[2.2.2]octan-1-amine]	1430
Cc1nc(N2CCc3c(c(C)nn3CC34CCC(N5CCCC5)(CC3)CC4)C2)c2cnn(C)c2n1 [compound 16, 1,6-dimethyl-4-(3-methyl-1-((4-(pyrrolidin-1-yl)bicyclo[2.2.2]octan-1-yl)methyl)-6,7-dihydro-1H-pyrazolo[4,3-c]pyridin-5(4H)-yl)-1H-pyrazolo[3,4-d]pyrimidine]	443
CCN(C)CC(=O)NC12CCC(Cn3nc(C)c4c3CCN(c3cc(C)nc5c3cnn5C)C4)(CC1)CC2 [compound 132, N-(4-((5-(1,6-dimethyl-1H-pyrazolo[3,4-b]pyridin-4-yl)-3-methyl-4,5,6,7-tetrahydro-1H-pyrazolo[4,3-c]pyridin-1-yl)methyl)bicyclo[2.2.2]octan-1-yl)-2-(ethyl(methyl)amino)acetamide]	8
Cc1cc(N2CCc3c(c(C)nn3CC34CCC(NC(=O)CN5CCCC5)(CC3)CC4)C2)c2cnn(C)c2n1 [compound 100, N-(4-((5-(1,6-dimethyl-1H-pyrazolo[3,4-b]pyridin-4-yl)-3-methyl-4,5,6,7-tetrahydro-1H-pyrazolo[4,3-c]pyridin-1-yl)methyl)bicyclo[2.2.2]octan-1-yl)-2-(pyrrolidin-1-yl)acetamide]	15
Cc1cc(N2CCc3c(c(C)nn3CC34CCC(NC(=O)OC(C)(C)C)(CC3)CC4)C2)c2ccncc2n1 [Compound No. 147, tert-butyl (4-((3-methyl-5-(2-methyl-1,7-naphthyridin-4-yl)-4,5,6,7-tetrahydro-1H-pyrazolo[4,3-c]pyridin-1-yl)methyl)bicyclo[2.2.2]octan-1-yl)carbamate]	> 10000

Second part, the molecule after the results:

IC50 [nM]	Structure (SMILES)
245	Cc1cc(N2CCc3c(c(C)nn3CC34CCC(NC(=O)CCN)(CC3)CC4)C2)c2cnn(C)c2n1 [compound 115, 3-amino-N-(4-((5-(1,6-dimethyl-1H-pyrazolo[3,4-b]pyridin-4-yl)-3-methyl-4,5,6,7-tetrahydro-1H-pyrazolo[4,3-c]pyridin-1-yl)methyl)bicyclo[2.2.2]octan-1-yl)propanamide]
331	[2H]C([2H])([2H])n1ncc2c(N3CCc4c(c(C)nn4CC45CCC(N)(CC4)CC5)C3)cc(C)nc21 [Compound No. 140, 4-((3-methyl-5-(6-methyl-1-(methyl-d3)-1H-pyrazolo[3,4-b]pyridin-4-yl)-4,5,6,7-tetrahydro-1H-pyrazolo[4,3-c]pyridin-1-yl)methyl)bicyclo[2.2.2]octan-1-amine]
236	CN[C@H](C)C(=O)NC12CCC(Cn3nc(C)c4c3CCN(c3cc(C)nc5c3cnn5C)C4)(CC1)CC2 [compound 117, (R)-N-(4-((5-(1,6-dimethyl-1H-pyrazolo[3,4-b]pyridin-4-yl)-3-methyl-4,5,6,7-tetrahydro-1H-pyrazolo[4,3-c]pyridin-1-yl)methyl)bicyclo[2.2.2]octan-1-yl)-2-(methylamino)propanamide]
55	Cc1cc(N2CCc3c(c(C)nn3CC34CCC(N)(CC3)CC4)C2)c2ccncc2n1 [Compound No. 3, 4-((3-methyl-5-(2-methyl-1,7-naphthyridin-4-yl)-4,5,6,7-tetrahydro-1H-pyrazolo[4,3-c]pyridin-1-yl)methyl)bicyclo[2.2.2]octan-1-amine]
8440	Cc1cc(N2CCc3c(c(C)nn3CC34CCC(NC(=O)CO)(CC3)CC4)C2)c2cnn(C)c2n1 [Compound No. 135, N-(4-((5-(1,6-dimethyl-1H-pyrazolo[3,4-b]pyridin-4-yl)-3-methyl-4,5,6,7-tetrahydro-1H-pyrazolo[4,3-c]pyridin-1-yl)methyl)bicyclo[2.2.2]octan-1-yl)-2-hydroxyacetamide]
197	CN[C@@H](C)C(=O)NC12CCC(Cn3nc(C)c4c3CCN(c3cc(C)nc5c3cnn5C)C4)(CC1)CC2 [compound 118]
861	Cc1cc(N2CCc3c(c(C)nn3CC34CCC(N)(CC3)C4)C2)c2cnn(C)c2n1 [compound 44, 4-((5-(1,6-dimethyl-1H-pyrazolo[3,4-b]pyridin-4-yl)-3-methyl-4,5,6,7-tetrahydro-1H-pyrazolo[4,3-c]pyridin-1-yl)methyl)bicyclo[2.2.1]heptan-1-amine]
39	CNCC(=O)NC12CCC(Cn3nc(C)c4c3CCN(c3cc(C)nc5c3cnn5C)C4)(CC1)CC2 [compound 121, N-(4-((5-(1,6-dimethyl-1H-pyrazolo[3,4-b]pyridin-4-yl)-3-methyl-4,5,6,7-tetrahydro-1H-pyrazolo[4,3-c]pyridin-1-yl)methyl)bicyclo[2.2.2]octan-1-yl)-2-(methylamino)acetamide]
630	Cc1cc(N2CCc3c(c(C(F)(F)F)nn3CC34CCC(N)(CC3)CC4)C2)c2cnn(C)c2n1 [compound 45, 4-((5-(1,6-dimethyl-1H-pyrazolo[3,4-b]pyridin-4-yl)-3-(trifluoromethyl)-4,5,6,7-tetrahydro-1H-pyrazolo[4,3-c]pyridin-1-yl)methyl)bicyclo[2.2.2]octan-1-amine]
